Test results taken from patent US10849982B2, “C3-carbon linked glutarimide degronimers for target protein degradation” (C4 Therapeutics, Inc., priority 2016, dated 2020).
Counter-ions that a name gives are not always drawn.

Target: CRBN-DDB1 (Homo sapiens (Human), UniProt Q96SW2)
Test: CRBN-DDB1 fluorescence polarization (FP) binding assay
Settings: displacement of Thalidomide-Alexa Fluor or Pomalidomide-fluorescein probe
Protocol: Measuring compound ligand binding to CRBN-DDB1 was carried out using an established sensitive and quantitative in vitro fluorescence polarization (FP) based binding assay. […] Compounds were dispensed from serially diluted DMSO stock into black 384-well compatible fluorescence polarization plates using an Echo acoustic dispenser. Compound binding to CRBN-DDB1 was measured by displacement of either a (−)-Thalidomide-Alexa Fluor® or Pomalidomide-fluorescein conjugated probe dye. […] Matching control wells excluding CRBN-DDB1 were used to correct for background fluorescence. Plates were read on an Envision plate reader with appropriate FP filter sets. The corrected S (perpendicular) and P (parallel) values were used to calculate fluorescence polarization (FP) with the following equation: FP=1000*(S−G*P)/(S+G*P).

CRBN-DDB1, sequence (Q96SW2 whole entry): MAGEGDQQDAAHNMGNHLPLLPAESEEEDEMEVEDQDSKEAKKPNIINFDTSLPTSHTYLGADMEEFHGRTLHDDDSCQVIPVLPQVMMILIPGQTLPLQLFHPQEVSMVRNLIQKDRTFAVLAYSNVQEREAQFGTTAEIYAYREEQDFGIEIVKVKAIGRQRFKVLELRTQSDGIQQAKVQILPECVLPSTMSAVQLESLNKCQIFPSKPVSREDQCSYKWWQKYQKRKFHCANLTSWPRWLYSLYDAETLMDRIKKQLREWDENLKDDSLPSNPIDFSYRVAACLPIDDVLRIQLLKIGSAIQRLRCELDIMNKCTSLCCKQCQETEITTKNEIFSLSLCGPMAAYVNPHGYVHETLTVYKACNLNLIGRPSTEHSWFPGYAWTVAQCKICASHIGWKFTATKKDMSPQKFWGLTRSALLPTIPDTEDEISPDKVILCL
CRBN-DDB1, sequence (Q16531 whole entry partner): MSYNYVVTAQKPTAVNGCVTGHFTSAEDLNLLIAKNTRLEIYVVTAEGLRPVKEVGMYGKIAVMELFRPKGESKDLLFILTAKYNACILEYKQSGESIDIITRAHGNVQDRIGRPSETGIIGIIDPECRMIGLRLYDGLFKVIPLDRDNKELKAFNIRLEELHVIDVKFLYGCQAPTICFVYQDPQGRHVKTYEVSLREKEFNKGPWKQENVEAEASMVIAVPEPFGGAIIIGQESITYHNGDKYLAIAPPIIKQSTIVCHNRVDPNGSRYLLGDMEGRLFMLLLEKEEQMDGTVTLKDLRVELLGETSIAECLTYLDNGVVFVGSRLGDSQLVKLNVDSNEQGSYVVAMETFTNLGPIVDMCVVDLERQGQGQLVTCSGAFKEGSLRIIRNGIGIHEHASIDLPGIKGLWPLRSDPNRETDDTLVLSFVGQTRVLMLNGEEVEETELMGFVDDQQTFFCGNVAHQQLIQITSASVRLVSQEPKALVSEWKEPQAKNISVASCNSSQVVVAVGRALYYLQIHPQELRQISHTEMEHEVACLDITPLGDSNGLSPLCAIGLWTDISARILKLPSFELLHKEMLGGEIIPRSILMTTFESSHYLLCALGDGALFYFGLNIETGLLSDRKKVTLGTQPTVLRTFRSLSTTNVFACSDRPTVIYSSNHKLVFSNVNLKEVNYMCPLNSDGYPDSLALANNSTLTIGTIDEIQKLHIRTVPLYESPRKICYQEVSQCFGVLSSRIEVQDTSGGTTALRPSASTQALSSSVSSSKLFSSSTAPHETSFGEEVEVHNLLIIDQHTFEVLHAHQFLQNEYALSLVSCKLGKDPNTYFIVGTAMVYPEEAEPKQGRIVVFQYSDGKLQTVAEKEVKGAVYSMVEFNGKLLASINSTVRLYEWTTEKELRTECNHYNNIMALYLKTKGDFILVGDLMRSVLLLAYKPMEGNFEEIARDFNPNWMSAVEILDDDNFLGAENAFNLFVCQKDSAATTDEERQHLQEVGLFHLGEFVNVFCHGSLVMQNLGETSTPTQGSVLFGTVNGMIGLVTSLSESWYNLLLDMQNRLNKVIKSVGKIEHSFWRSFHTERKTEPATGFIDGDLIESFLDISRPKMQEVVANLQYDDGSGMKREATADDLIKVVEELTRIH

Row | SMILES | Kd
1 | O=C1CCC(C(=O)Nc2ccccn2)C(=O)N1 (centres unmarked) [Compound 17] | > 100 µM
2 | Cn1ccc2ccc(C3CCC(=O)NC3=O)nc21 (centres unmarked) [Compound 35, 3-(1-Methyl-1H-pyrrolo[2,3-b]pyridin-6-yl)-piperidine-2,6-dione] | 10 to 50 µM
3 | Cn1ccc(C2CCC(=O)NC2=O)n1 (centres unmarked) [Compound 33, 3-(1-methyl-1H-pyrazol-3-yl)piperidine-2,6-dione] | 10 to 50 µM
4 | Cn1nc(C2CCC(=O)NC2=O)c2ccc(NC3CCNCC3)cc21 (centres unmarked) [Compound 53, 3-(1-Methyl-6-(piperidin-4-ylamino)-1H-indazol-3-yl)piperidine-2,6-dione hydrochloride] | < 10 µM
5 | Cc1nc(C2CCC(=O)NC2=O)cn1-c1ccccc1 (centres unmarked) [Compound 46, 3-(2-Methyl-1-phenyl-1H-imidazol-4-yl)-piperidine-2,6-dione] | 10 to 50 µM
6 | CN(C(=O)C1CCC(=O)NC1=O)c1ccccc1 (centres unmarked) [Compound 22] | > 100 µM
7 | O=C1CCC(c2ccc3c(c2)CNC3)C(=O)N1 (centres unmarked) [Compound 55, 3-(Isoindolin-5-yl)piperidine-2,6-dione hydrochloride] | 50 to 100 µM
8 | CC1(c2ccccc2)CCC(=O)NC1=O (centres unmarked) [Compound 8, 3-Methyl-3-phenylpiperidine-2,6-dione] | > 30 µM
9 | Cn1nc(C2CCC(=O)NC2=O)c2ccc(N)cc21 (centres unmarked) [Compound 51, 3-(6-amino-1-methyl-indazol-3-yl)piperidine-2,6-dione] | 50 to 100 µM
10 | Cn1cccc(C2CCC(=O)NC2=O)c1=O (centres unmarked) [Compound 59, 3-(1-methyl-2-oxo-1,2-dihydropyridin-3-yl)piperidine-2,6-dione] | 50 to 100 µM
11 | Cn1nc(C2CCC(=O)NC2=O)c2ccccc21 (centres unmarked) [Compound 37, 3-(1-Methyl-1H-indazol-3-yl)-piperidine-2,6-dione] | < 10 µM
12 | CN(C)CC(=O)Nc1ccc(C23CC2C(=O)NC3=O)cc1 (centres unmarked) [Compound 5, 2-(dimethylamino)-N-(4-(2,4-dioxo-3-azabicyclo[3.1.0]hexan-1-yl)phenyl)acetamide] | > 100 µM
13 | O=C1CCC(C(=O)Nc2ccccc2F)C(=O)N1 (centres unmarked) [Compound 18] | > 100 µM
14 | Cc1nc2cc(C3CCC(=O)NC3=O)ccc2s1 (centres unmarked) [Compound 48, 3-(2-Methyl-benzothiazol-5-yl)-piperidine-2,6-dione] | < 10 µM
15 | O=C1CCC(c2cn(-c3ccccc3)cn2)C(=O)N1 (centres unmarked) [Compound 64, 3-(1-phenyl-1H-imidazol-4-yl)piperidine-2,6-dione] | 10 to 50 µM
16 | O=C1CCC(CC(=O)Nc2ccccc2F)C(=O)N1 (centres unmarked) [Compound 23, 2-(2,6-Dioxo-piperidin-3-yl)-N-(2-fluoro-phenyl)-acetamide] | 50 to 100 µM
17 | O=C1CCC(c2nccc3ccccc23)C(=O)N1 (centres unmarked) [Compound 58, 3-(Isoquinolin-1-yl)piperidine-2,6-dione] | 10 to 50 µM
18 | O=C1NC(=O)C2(c3ccc([N+](=O)[O-])cc3)CC12 (centres unmarked) [Compound 3, 1-(4-Nitrophenyl)-3-azabicyclo[3.1.0]hexane-2,4-dione] | > 100 µM
19 | O=C1CCC(O)(C(=O)OCc2ccccc2)C(=O)N1 (centres unmarked) [Compound 60, benzyl 3-hydroxy-2,6-dioxopiperidine-3-carboxylate] | 10 to 50 µM
20 | O=C1NC(=O)C2(c3ccccc3)CC12 (centres unmarked) [Compound 1, 1-phenyl-3-azabicyclo[3.1.0]hexane-2,4-dione] | > 100 µM

Row | SMILES | Kd
21 | CC1(c2ccccc2N)CCC(=O)NC1=O (centres unmarked) [Compound 11, 3-(2-aminophenyl)-3-methylpiperidine-2,6-dione] | > 30 µM
22 | Cn1c(CC2CCC(=O)NC2=O)nc2ccccc21 (centres unmarked) [Compound 12] | 50 to 100 µM
23 | COc1ccccc1NC(=O)C1CCC(=O)NC1=O (centres unmarked) [Compound 15] | 10 to 50 µM
24 | CN1Cc2ccc(C3CCC(=O)NC3=O)cc2C1=O (centres unmarked) [Compound 41, 3-(2-Methyl-3-oxo-2,3-dihydro-1H-isoindol-5-yl)-piperidine-2,6-dione] | 10 to 50 µM
25 | CC(C)(C)OC(=O)N1CCN(C(=O)CC2CCC(=O)NC2=O)CC1 (centres unmarked) [Compound 44, 4-[2-(2,6-Dioxo-piperidin-3-yl)-acetyl]-piperazine-1-carboxylic acid tert-butyl ester] | 50 to 100 µM
26 | O=C1CCC(Cc2cn(-c3ccccc3)nn2)C(=O)N1 (centres unmarked) [Compound 24, 3-(1-Phenyl-1H-[1,2,3]triazol-4-ylmethyl)-piperidine-2,6-dione] | 10 to 50 µM
27 | CC1(c2ccc(N)cc2)CCC(=O)NC1=O (centres unmarked) [Compound 10, 3-(4-Aminophenyl)-3-methylpiperidine-2,6-dione] | > 30 µM
28 | Cn1nc(-c2ccccc2)cc1C1CCC(=O)NC1=O (centres unmarked) [Compound 31, 3-(1-methyl-3-phenyl-1H-pyrazol-5-yl)piperidine-2,6-dione] | 50 to 100 µM
29 | CN(C(=O)C1CCC(=O)NC1=O)c1ccccn1 (centres unmarked) [Compound 20] | > 100 µM
30 | Cn1cc(C2CCC(=O)NC2=O)nn1 (centres unmarked) [Compound 26, 3-(1-Methyl-1H-[1,2,3]triazol-4-yl)-piperidine-2,6-dione] | 50 to 100 µM
31 | COc1cccc(C2CCC(=O)NC2=O)n1 (centres unmarked) [Compound 34, 3-(6-methoxypyridin-2-yl)piperidine-2,6-dione] | 10 to 50 µM
32 | Cn1nc([C@H]2CCC(=O)NC2=O)c2ccccc21 [Compound 39] | 10 to 50 µM
33 | Cn1cc(C2CCC(=O)NC2=O)c2ccccc21 (centres unmarked) [Compound 29, 3-(1-Methyl-1H-indol-3-yl)-piperidine-2,6-dione] | < 10 µM
34 | Cn1c(C2CCC(=O)NC2=O)nc2ccccc21 (centres unmarked) [Compound 62, 3-(1-methyl-1H-benzo[d]imidazol-2-yl)piperidine-2,6-dione] | 50 to 100 µM
35 | O=C1CCC(Cc2ccccc2)C(=O)N1 (centres unmarked) [Compound 50, 3-benzylpiperidine-2,6-dione] | 10 to 50 µM
36 | Cn1cnc2c(C3CCC(=O)NC3=O)cccc21 (centres unmarked) [Compound 36, 3-(1-methyl-1H-benzo[d]imidazol-4-yl)piperidine-2,6-dione] | 10 to 50 µM
37 | Cn1c(=O)c(C2CCC(=O)NC2=O)cc2ccccc21 (centres unmarked) [Compound 40, 3-(1-Methyl-2-oxo-1,2-dihydro-quinolin-3-yl)-piperidine-2,6-dione] | < 10 µM
38 | Cn1nc(C2(C)CCC(=O)NC2=O)c2ccccc21 (centres unmarked) [Compound 47, 3-Methyl-3-(1-methyl-1H-indazol-3-yl)-piperidine-2,6-dione] | 10 to 50 µM
39 | CS(=O)(=O)Nc1ccc(C23CC2C(=O)NC3=O)cc1 (centres unmarked) [Compound 7, N-(4-(2,4-dioxo-3-azabicyclo[3.1.0]hexan-1-yl)phenyl)methanesulfonamide] | > 100 µM
40 | O=C1CCC(c2cn(-c3ccccc3)nn2)C(=O)N1 (centres unmarked) [Compound 27, 3-(1-Phenyl-1H-[1,2,3]triazol-4-yl)-piperidine-2,6-dione] | 10 to 50 µM

Row | SMILES | Kd
41 | CC(=O)Nc1ccc(C23CC2C(=O)NC3=O)cc1 (centres unmarked) [Compound 6, N-(4-(2,4-dioxo-3-azabicyclo[3.1.0]hexan-1-yl)phenyl)acetamide] | > 100 µM
42 | O=C1CCC(CC(=O)N2CCNCC2)C(=O)N1 (centres unmarked) [Compound 45, 3-(2-Oxo-2-piperazin-1-yl-ethyl)-piperidine-2,6-dione hydrochloride Salt] | 50 to 100 µM
43 | CC(C)(C)OC(=O)N1Cc2cccc(C3CCC(=O)NC3=O)c2C1 (centres unmarked) [Compound 42, 4-(2,6-dioxo-piperidin-3-yl)-1,3-dihydro-isoindole-2-carboxylic acid tert-butyl ester] | 10 to 50 µM
44 | COc1ccccc1N(C)C(=O)C1CCC(=O)NC1=O (centres unmarked) [Compound 19] | > 100 µM
45 | O=C1CCC(C(=O)Nc2cccnc2)C(=O)N1 (centres unmarked) [Compound 16] | > 100 µM
46 | Cn1nc([C@@H]2CCC(=O)NC2=O)c2ccccc21 [Compound 38] | < 10 µM
47 | Cn1cc(CC2CCC(=O)NC2=O)nn1 (centres unmarked) [Compound 25, 3-(1-Methyl-1H-[1,2,3]triazol-4-ylmethyl)-piperidine-2,6-dione] | 50 to 100 µM
48 | Nc1ccc(C23CC2C(=O)NC3=O)cc1 (centres unmarked) [Compound 4, 1-(4-Aminophenyl)-3-azabicyclo[3.1.0]hexane-2,4-dione] | > 30 µM
49 | Cc1ccccc1C1CCC(=O)NC1=O (centres unmarked) [Compound 32, 3-(o-tolyl)piperidine-2,6-dione] | 10 to 50 µM
50 | Cc1nc(C2CCC(=O)NC2=O)n2ccccc12 (centres unmarked) [Compound 61, 3-(1-methylimidazo[1,5-a]pyridin-3-yl)piperidine-2,6-dione] | < 10 µM
51 | CC(C)(C)OC(=O)N1Cc2ccc(C3CCC(=O)NC3=O)cc2C1 (centres unmarked) [Compound 54, 5-(2,6-Dioxo-piperidin-3-yl)-1,3-dihydro-isoindole-2-carboxylic acid tert-butyl ester] | 10 to 50 µM
52 | Cn1c(=O)oc2ccc(C3CCC(=O)NC3=O)cc21 (centres unmarked) [Compound 49, 3-(3-Methyl-2-oxo-2,3-dihydro-benzooxazol-5-yl)-piperidine-2,6-dione] | 10 to 50 µM
53 | Cn1nc(CC2CCC(=O)NC2=O)c2ccccc21 (centres unmarked) [Compound 13, 3-((1-methyl-1H-indazol-3-yl)methyl)piperidine-2,6-dione] | > 100 µM
54 | O=C1NC(=O)C2(c3ccccc3)CC1C2 [Compound 2, 1-Phenyl-3-azabicyclo[3.1.1]heptane-2,4-dione] | > 30 µM
55 | O=C1CCC(C(=O)Nc2ccccc2)C(=O)N1 (centres unmarked) [Compound 14] | 50 to 100 µM
56 | Cn1nc(C2CCC(=O)NC2=O)c2ccc(NC3CCN(C(=O)OC(C)(C)C)CC3)cc21 (centres unmarked) [Compound 52, tert-Butyl 4-((3-(2,6-dioxopiperidin-3-yl)-1-methyl-1H-indazol-6-yl)amino)piperidine-1-carboxylate] | < 10 µM
57 | CN(C(=O)C1CCC(=O)NC1=O)c1ccccc1F (centres unmarked) [Compound 21] | 50 to 100 µM
58 | O=C1CCC(c2ncc3ccccn23)C(=O)N1 (centres unmarked) [Compound 28, 3-Imidazo[1,5-a]pyridin-3-yl-piperidine-2,6-dione] | < 10 µM
59 | Cn1nc(C2CCC(=O)NC2=O)cc1-c1ccccc1 (centres unmarked) [Compound 30, 3-(1-methyl-5-phenyl-1H-pyrazol-3-yl)-piperidine-2,6-dione] | < 10 µM
